The text below walks through data of patent publication US10526318B2, “Oral cannabinoid receptor modulator formulations” (THE CLEVELAND CLINIC FOUNDATION, priority 2018, dated 2020).

A short description of data set [1]: MDA7 GB/IB non-sink microcentrifuge dissolution test. The data set is classed as physicochemical. The protocol:
In the first round of testing, experiments were carried out using crystalline API, 25% MDA7: HPMCAS-H, 25% MDA7: Eudragit L100, 25/65/10%:HPMCAS-M:TPGS, 25/65/10% MDA7:PVP VA64:TPGS, and 40% MDA7: HPMCAS-M. The results of these experiments are shown in FIG. 1, and Table 1 below.

A short description of data set [2]: Microcentrifuge dissolution test, second round of SDD testing. The data set is classed as physicochemical. To be noted: 400 μgA/mL in 0.5 wt % SIF in PBS, pH 6.5, 37° C. The protocol: In the second round of testing, experiments were carried out using crystalline API (active pharmaceutical ingredient; MDA7), 10% MDA7 in HPMCAS-M SDD, 25% MDA7 in HPMCAS-M SDD, 25% MDA7 in HPMCAS-L SDD, and 25% MDA7:PVP VA64 SDD. The test conditions were 400 μgA/mL in 0.5 wt % SIF in PBS, pH 6.5, 37° C.

In a further data set the test system is male beagle dogs. Conditions: intravenous, 5 mg/mL in 20% HPβCD, Dog1001 and Dog1002.
The test system of another data set is mice. To be noted: cited from earlier work.

Molecules are shown by their SMILES.

Method for male beagle dogs: The mixture was vortexed then stirred at room temperature for 93 minutes forming a clear yellow solution at a concentration of 5 mg/mL for intravenous dosing. The intravenous dose solution was sterile-filtered using a Millex GV PVDF 0.22 μm filter (Millipore) prior to dosing.
Using clean technique, an aliquot of the 5 mg/mL Group 1 formulation (2.8 mL) was combined with 20% HPβCD (4.2 mL), and vortexed to form a clear yellow solution at a concentration of 2 mg/mL for intravenous dosing.
A total of fifteen male beagle dogs (plus one spare animal) were selected from the Test Facility's colony of non-naïve animals. The animals were assigned to the study based on acceptable health as determined by a Test Facility veterinarian following a pre-study health status check. The pre-study health status check included a physical exam, serum chemistry and hematology evaluations. The animals were placed into five groups of three animals per group. All animals were fasted overnight prior to dose administration.
Each animal in Group 1 received the prepared test article as a 30-60 second intravenous injection by way of a temporary percutaneous catheter placed in a peripheral vein. Immediately after each intravenous dose, the catheter was flushed with 3 mL of saline prior to removal. […]

With `CC1(Cc2ccccc2)COc2cc(C(=O)N3CCCCC3)ccc21` (centres unmarked) [Crystalline API, 3-benzyl-3-methyl-2,3-dihydrobenzofuran-6-carboxylic acid-piperidine amide], in data set [1], the AUC90 is 2,360 min*μg/mL, the C90 came out at 31 µg/mL, the C1200 was found to be 31 µg/mL and the Cmax90 came to 31 µg/mL. Also, in data set [1], the Ultra90 came out at 31 µg/mL and the Ultra1200 is 31 µg/mL. Further, in data set [2], the AUC90 is 2,010 min*μg/mL, the C90 amounted to 24 µg/mL, the C1200 stood at 28 µg/mL and the Cmax90 stood at 27 µg/mL. In data set [2], this compound came in with a Ultra90 of 20 µg/mL and a Ultra1200 of 24 µg/mL. For the same compound, the “clinical effects observed following dosing” value in the data set with male beagle dogs is “adverse clinical effects”.
With `Cc1c(C(=O)NN2CCCCC2)nn(-c2ccc(Cl)cc2Cl)c1-c1ccc(Cl)cc1` [SR141716A], the “effect on food intake” value with mice is on record as “reduces food intake”.
